inhibition, IC50 and Activity data for 42 compounds are collected here from ChEMBL document CHEMBL5247613, “Design, synthesis and biological evaluation of a new class of Hsp90 inhibitors vibsanin C derivatives” (Eur J Med Chem, 2022).

By inhibition is commonly meant the relative decrease from the control value, in per cent. One may read the IC50 as the point on the concentration scale where inhibition reaches its midpoint.

The test system of experiment [1] is Reticulocyte. Nature of the experiment: Inhibition of HSP90 in rabbit reticulocyte lysates at 10 uM incubated for 3 hrs by denatured luciferase refolding assay. It is filed as subcellular. To be noted: Oryctolagus cuniculus.
A short description of experiment [2]: Inhibition of HSP90 in rabbit reticulocyte lysates incubated for 3 hrs by denatured luciferase refolding assay. It is filed as subcellular, Oryctolagus cuniculus.
In the next experiment the test system is HL-60. Nature of the experiment: Antiproliferative activity against human HL-60 cells assessed as reduction in cell viability incubated for 48 hrs by MTT assay. To be noted: HL-60, 48 h. It is filed as functional, cell-based.
A further experiment deals with A549. Nature of the experiment: Antiproliferative activity against human A549 cells assessed as reduction in cell viability incubated for 48 hrs by MTT assay. The experiment is classed as functional, cell-based. As to conditions: A549, 48 h. On the technique in general: Formazan colour is commonly taken as a measure of viable cells.
The subject of the next experiment is SMMC-7721. Nature of the experiment: Antiproliferative activity against human SMMC-7721 cells assessed as reduction in cell viability incubated for 48 hrs by MTT assay. The experiment is classed as functional, cell-based. As to conditions: SMMC-7721, 48 h.
For the next experiment, the system named is MCF7. Nature of the experiment: Antiproliferative activity against human MCF7 cells assessed as reduction in cell viability incubated for 48 hrs by MTT assay. It is filed as functional, cell-based. To be noted: MCF7, 48 h.
A further experiment relates to SW480. The experiment can be described thus: Antiproliferative activity against human SW480 cells assessed as reduction in cell viability incubated for 48 hrs by MTT assay. It is filed as functional, cell-based. As to conditions: SW480, 48 h.
The target of experiment [3] is T1, Heat shock protein HSP90 (Homo sapiens) (UniProt P07900+P08238). Nature of the experiment: Inhibition of HSP90 in human HL-60 cells assessed as increase in HSP27 protein expression incubated for 24 hrs by western blot analysis. As to conditions: dose 1-10 µM. The experiment is classed as cell-based. Background: Immunoblotting shows a protein as a band on a membrane.

Experiment [4] addresses T1, Heat shock protein HSP90 (Homo sapiens). The experiment can be described thus: Inhibition of HSP90 in human HL-60 cells assessed as decrease in CDK4 protein expression incubated for 24 hrs by western blot analysis. The experiment is classed as cell-based. As to conditions: dose 1-10 µM.
For experiment [5] the target is unchanged. The experiment can be described thus: Binding affinity to full length HSP90 (unknown origin) expressed in Escherichia coli BL21(DE3) cells at 20 uM by NMR STD assay.
Experiment [6] has as its system Reticulocyte. The experiment can be described thus: Inhibition of HSP90 in rabbit reticulocyte lysates at 500 uM incubated for 3 hrs by denatured luciferase refolding assay. To be noted: Oryctolagus cuniculus. The experiment is classed as subcellular.

Structures are written as SMILES. The source made the active and inactive calls. The rule behind the calls is not given here.

With `CC(=O)C[C@@H]1C(=O)C(COC(=O)CCC(=O)O)=CC[C@](C)(CCC=C(C)C)[C@H]1/C=C/OC(=O)C=C(C)C`, the inhibition in the experiment with Reticulocyte [1] was determined as 66.8%. Moreover, the IC50 in experiment [2] is 7.52 µM.

For `CC(C)=CCC[C@@]1(C)CC=C(CNc2ccc(F)cc2)c2nnc(C)cc2[C@@H]1/C=C/OC(=O)C=C(C)C`, in the experiment with Reticulocyte [1], the inhibition was determined as 49.3%.

Regarding `CC(C)=CCC[C@]1(C)/C=C/[C@@H](OC(=O)C=C(C)C)[C@](C)(O)/C=C/C(=O)/C(CN2CCN(C)CC2)=C\C1`, in the experiment with Reticulocyte [1], the inhibition worked out at 93.6%. The compound further registered an IC50 in [2] of 0.98 µM.

With `CC(C)=CCC[C@@]1(C)CC=C(COC(=O)CCC(=O)O)c2oc(C)cc2[C@@H]1/C=C/OC(=O)C=C(C)C`, the inhibition in the experiment with Reticulocyte [1] was 88.2%; in experiment [3], “Dose-Dependent Effect”; in experiment [4], “Dose-Dependent Effect”. The IC50 is 0.27 µM in experiment [2]; 16.9 µM with HL-60; more than 40 µM in the experiment with A549; more than 40 µM in the experiment with SMMC-7721; more than 40 µM with MCF7; more than 40 µM in the experiment on SW480. Besides, the outcome in [5] was Active.

As for `CC(=O)C[C@@H]1C(=O)C(CF)=CC[C@](C)(CCC=C(C)C)[C@H]1/C=C/OC(=O)C=C(C)C`, the inhibition in the experiment with Reticulocyte [1] worked out at 84.3%. Besides, in experiment [2], the IC50 is 4.1 µM.

In the experiment on Reticulocyte [1], `CC(C)=CCC[C@@]1(C)CC=C(COC(=O)CCC(=O)O)c2[nH]c(C)cc2[C@@H]1/C=C/OC(=O)C=C(C)C` had an inhibition of 71%. Moreover, the IC50 in [2] came out at 6.05 µM.

For `CC(C)=CCC[C@@]1(C)CC=C(COC(=O)c2ccc3cc[nH]c3c2)c2nnc(C)cc2[C@@H]1/C=C/OC(=O)C=C(C)C`, the inhibition in the experiment on Reticulocyte [1] was determined as 66.6%. In experiment [2], the IC50 was 4.57 µM.

`CC(C)=CCC[C@@]1(C)CC=C(COC(=O)CCC(=O)O)c2nnc(C)cc2[C@@H]1/C=C/OC(=O)C=C(C)C` yielded an inhibition in the experiment on Reticulocyte [1] of 94.6%. Also, the IC50 in experiment [2] was 0.27 µM; with HL-60, more than 40 µM; with A549, more than 40 µM; in the experiment with SMMC-7721, more than 40 µM; with MCF7, more than 40 µM; in the experiment on SW480, more than 40 µM.

`CC(=O)C[C@@H]1C(=O)[C@H](CO)CC[C@](C)(CCCC(C)C)[C@H]1/C=C/OC(=O)C=C(C)C` came in with an inhibition in the experiment with Reticulocyte [1] of 22.8%.

On to `CO[C@@H]1[C@@H](OC(N)=O)[C@@H](O)[C@H](Oc2ccc3c(O)c(NC(=O)c4ccc(O)c(CC=C(C)C)c4)c(=O)oc3c2C)OC1(C)C` [NOVOBIOCIN], for which the inhibition in the experiment with Reticulocyte [6] was found to be 78.9%. The compound further gave an IC50 in experiment [2] of 468 µM.

Compound `CC(=O)C[C@@H]1C(=O)C(COC(C)=O)=CC[C@](C)(CCC=C(C)C)[C@H]1/C=C/OC(=O)C=C(C)C` registered an inhibition with Reticulocyte [1] of 34.9%.

With `CC(C)=CCC[C@@]1(C)CC=C(CO)c2oc(C)cc2[C@@H]1/C=C/OC(=O)C=C(C)C`, the inhibition in the experiment on Reticulocyte [1] was 82.3%.

For `CC(=O)C[C@@H]1C(=O)C(CCl)=CC[C@](C)(CCC=C(C)C)[C@H]1/C=C/OC(=O)C=C(C)C`, in the experiment on Reticulocyte [1], the inhibition was 53.1%.

In the case of `CC(C)=CCC[C@@]1(C)CC=C(CCl)c2nnc(C)cc2[C@@H]1/C=C/OC(=O)C=C(C)C`, the inhibition in the experiment on Reticulocyte [1] stood at 85.9%. The same compound had an IC50 in [2] of 2.37 µM.

In turn, `CC(C)=CCC[C@@]1(C)CC=C(COC(=O)CCC(=O)Nc2ccc(F)cc2)c2[nH]c(C)cc2[C@@H]1/C=C/OC(=O)C=C(C)C` gave an inhibition with Reticulocyte [1] of 48%.

In the experiment on Reticulocyte [1], `CC(=O)C[C@@H]1C(=O)C(CNc2ccc(F)cc2)=CC[C@](C)(CCC=C(C)C)[C@H]1/C=C/OC(=O)C=C(C)C` displayed an inhibition of 64.5%.

For `CC(C)=CCC[C@@]1(C)CC=C(CO)C(=O)[C@H]2C[C@@](C)(O)[C@@H](C=O)[C@@H]21`, the inhibition in the experiment on Reticulocyte [1] came to 13.3%.

Consider `CC(C)=CCC[C@@]1(C)CC=C(Cn2ccnc2)c2oc(C)cc2[C@@H]1/C=C/OC(=O)C=C(C)C`, for which the inhibition with Reticulocyte [1] was found to be 37.1%.

Take `CC(C)=CCC[C@@]1(C)CC=C(CO)[C@H]2O[C@](C)(O)C[C@H]2[C@@H]1/C=C/OC(=O)C=C(C)C`: the inhibition in the experiment on Reticulocyte [1] came out at 14.2%.

For `CC(C)=CCC[C@@]1(C)CC=C(CN2CCOCC2)c2[nH]c(C)cc2[C@@H]1/C=C/OC(=O)C=C(C)C`, in the experiment on Reticulocyte [1], the inhibition is 6.37%.

On to `CC(C)=CCC[C@@]1(C)CC=C(COC(=O)c2ccc3cc[nH]c3c2)c2[nH]c(C)cc2[C@@H]1/C=C/OC(=O)C=C(C)C`, for which, in the experiment with Reticulocyte [1], the inhibition came out at 50.8%.

`CC(C)=CCC[C@@]1(C)CC=C(COC(=O)CCC(=O)Nc2ccc(F)cc2)c2nnc(C)cc2[C@@H]1/C=C/OC(=O)C=C(C)C` returned an inhibition in the experiment on Reticulocyte [1] of 54.1%.

In the experiment with Reticulocyte [1], `CC(=O)C[C@@H]1C(=O)C(CO)=CC[C@](C)(CCC=C(C)C)[C@H]1/C=C/OC(=O)C=C(C)C` returned an inhibition of 30%.

Turning to `CC(C)=CCC[C@@]1(C)CC=C(CO)c2nnc(C)cc2[C@@H]1/C=C/OC(=O)C=C(C)C`, the inhibition in the experiment with Reticulocyte [1] came to 23.6%.

For `CC(=O)C[C@@H]1C(=O)C(COC(=O)c2ccccc2)=CC[C@](C)(CCC=C(C)C)[C@H]1/C=C/OC(=O)C=C(C)C`, in the experiment on Reticulocyte [1], the inhibition was 36.9%.

As for `CC(=O)C[C@@H]1C(=O)C(COC(=O)c2cc(Cl)ccc2N)=CC[C@](C)(CCC=C(C)C)[C@H]1/C=C/OC(=O)C=C(C)C`, the inhibition in the experiment on Reticulocyte [1] was found to be 61.8%. The IC50 in [2] came out at 4.09 µM.

With `CC(C)=CCC[C@@]1(C)CC=C(CCl)c2oc(C)cc2[C@@H]1/C=C/OC(=O)C=C(C)C`, in the experiment on Reticulocyte [1], the inhibition was 32.6%.

For `CC(C)=CCC[C@@]1(C)CC=C(C=O)c2[nH]c(C)c(Cl)c2[C@@H]1/C=C/OC(=O)C=C(C)C`, the inhibition with Reticulocyte [1] is 45%.

As for `CC(C)=CCC[C@@]1(C)CC=C(CF)c2nnc(C)cc2[C@@H]1/C=C/OC(=O)C=C(C)C`, the inhibition in the experiment with Reticulocyte [1] amounted to 77.8%. Also, the IC50 in experiment [2] amounted to 0.37 µM; with HL-60 it was 3.45 µM; in the experiment with A549, 20.5 µM; with SMMC-7721 it was 15.7 µM; in the experiment with MCF7, 17.6 µM; with SW480, 18.2 µM.

Turning to `CC(=O)C[C@@H]1C(=O)C(CO)=CC[C@](C)(CCC(=O)C(C)C)[C@H]1/C=C/OC(=O)C=C(C)C`, in the experiment with Reticulocyte [1], the inhibition stood at 0.69%.

Regarding `CC(C)=CCC[C@@]1(C)CC=C(CF)c2[nH]c(C)cc2[C@@H]1/C=C/OC(=O)C=C(C)C`, in the experiment on Reticulocyte [1], the inhibition is 68.8%. The compound also showed an IC50 in experiment [2] of 3.61 µM.

In the experiment with Reticulocyte [1], `CC(C)=CCC[C@@]1(C)CC=C(CN2CCN(C(C)C)CC2)c2nnc(C)cc2[C@@H]1/C=C/OC(=O)C=C(C)C` had an inhibition of 20.1%.

In the experiment with Reticulocyte [1], `CC(=O)C[C@@H]1C(=O)C(CN2CCOCC2)=CC[C@](C)(CCC=C(C)C)[C@H]1/C=C/OC(=O)C=C(C)C` had an inhibition of 14.2%.

Take `CC(=O)C[C@@H]1C(=O)C(CN2CCN(C(C)C)CC2)=CC[C@](C)(CCC=C(C)C)[C@H]1/C=C/OC(=O)C=C(C)C`: in the experiment with Reticulocyte [1], the inhibition was determined as 23.8%.

With `CC(=O)C[C@@H]1C(=O)C(CO)=CC[C@](C)(CCC2OC2(C)C)[C@H]1/C=C/OC(=O)C=C(C)C` (stereo partly specified), the inhibition in the experiment on Reticulocyte [1] was found to be 36.6%.

As to `CC(C)=CCC[C@@]1(C)CC=C(COC(=O)CCC(=O)Nc2ccc(F)cc2)c2oc(C)cc2[C@@H]1/C=C/OC(=O)C=C(C)C`, the inhibition in the experiment with Reticulocyte [1] stood at 57%.

`CC(C)=CCC[C@@]1(C)CC=C(CNc2ccc(F)cc2)c2oc(C)cc2[C@@H]1/C=C/OC(=O)C=C(C)C` showed an inhibition with Reticulocyte [1] of 13.1%.

With `CC(=O)O[C@H]1C(=O)[C@@]2(C)[C@H]([C@H](OC(=O)c3ccccc3)[C@]3(O)C[C@H](OC(=O)[C@H](O)[C@@H](NC(=O)c4ccccc4)c4ccccc4)C(C)=C1C3(C)C)[C@]1(OC(C)=O)CO[C@@H]1C[C@@H]2O` [PACLITAXEL], the IC50 is less than 0.008 µM in the experiment with HL-60; less than 0.008 µM in the experiment on A549; 0.097 µM in the experiment with SMMC-7721; less than 0.008 µM in the experiment with MCF7; less than 0.008 µM in the experiment on SW480.

In the case of `CC(=O)C[C@@H]1C(=O)C(COC(=O)C2CCCCC2)=CC[C@](C)(CCC=C(C)C)[C@H]1/C=C/OC(=O)C=C(C)C`, the inhibition in the experiment with Reticulocyte [1] came to 40.3%.

`CC(C)=CCC[C@@]1(C)CC=C(COC(=O)c2ccc3cc[nH]c3c2)c2oc(C)cc2[C@@H]1/C=C/OC(=O)C=C(C)C` came in with an inhibition in the experiment with Reticulocyte [1] of 42.9%.

For `CC(=O)C[C@@H]1C(=O)C(CS)=CC[C@](C)(CCC=C(C)C)[C@H]1/C=C/OC(=O)C=C(C)C`, the inhibition in the experiment on Reticulocyte [1] stood at 0.32%.

In the experiment with Reticulocyte [1], `CC(C)=CCC[C@@]1(C)CC=C(CO)c2[nH]c(C)cc2[C@@H]1/C=C/OC(=O)C=C(C)C` displayed an inhibition of 10.6%.
